In patent US6610649B2, “Insulin C-peptides” (Creative Peptides Sweden AB, priority 1996, dated 2003):

Experiments:
[1] = test system: Na^+K^+ATPase; assay: Stimulation of Na+K+ATPase activity of rat renal tubule cells (microdissected proximal convoluted tubules, 32P-ATP with or without ouabain); assay type: cell-based; conditions: for relative stimulatory activity on Na^+K^+ATPase activity: 5-10^−7 M peptide, rat C-peptide 1 at the same concentration set at 100%, tubules incubated 30 minutes at room temperature; for activity of peptides containing D-amino acid isomers (in words): Na^+K^+ATPase of rat renal tubule segments; for stimulation of Na^+K^+ATPase activity compared with whole C-peptide (in words): renal tubule cells in vitro
Experimental: Fragments of the invention have been proven to stimulate Na^+K^+ATPase activity to varying extent. […] As much as 90% of the effect is achieved within 3 minutes. […] Combinations of Peptides A-D with Peptides E or F result in a stimulation of the enzyme activity that is greater than that for either peptide alone. For detailed examples of the stimulatory effects of the above peptides, see Example 1, below.
In the case of peptide A certain studies on Na^+K^+ATPase activity, studying the ability of the peptide fragments to stimulate the activity of Na^+K^+ATPase of rat renal tubule segments, have shown that one or more of the central tri-glycine residues may be important, and preferred peptide fragments, where peptide A is concerned, thus include at least one, and more preferably, at least two, of the central tri-glycine residues. Thus, in addition to peptides B, C and D mentioned above, representative exemplary peptide fragments include GGGPGAG (SEQ ID NO. 8), GGGPG (SEQ ID No. 9), GGGP (SEQ ID NO. 10), GGP and GGPG (SEQ ID NO. 11).
The stimulatory effect of Peptides A-F on Na^+K^+ATPase activity of rat renal tubule cells was examined. Single proximal convoluted tubules were prepared from rat kidneys by micro-dissection. The tubules were incubated for 30 minutes at room temperature with either of Peptides A-F or rat C-peptide 1. Na^+K^+ATPase activity was then measured following exposure of the tubules to hypotonic shock and incubation for 15 minutes in a medium containing ^32P-ATP in the presence or absence of oubain.
The stimulatory activity of 5-10^−7 M rat C-peptide 1 was set at 100%. For the same concentration of Peptides A-F the following relative activities were obtained: […]

[2] = test system: cell surface of human renal tubule cells (C-peptide binding site); assay: Binding of rhodamine-labelled C-peptide to cultured human renal tubule cells, by fluorescence correlation spectroscopy; conditions: for effect of preincubation on binding of fluorescently labelled C-peptide (in words): preincubation of cells with the unlabelled peptide
Experimental: When fluorescently labelled C-peptide is incubated with cells it binds to the cell surface. […] For a detailed example of the binding of Fragment E see Example 28, below.
The specific binding of Peptide E to the cell surface is illustrated as follows. Human biosynthetic C-peptide (Eli-Lilly, Inc., Indianapolis, USA) was labelled with tetramethylrhodamine using the activated reagent tetramethylrhodamine succinimidyl ester (FluoReporter® Protein labelling kit, Art. no. F-6163; Molecular Probes Europe BV, Leiden, Netherlands). The coupling reaction was performed at pH 8.3 (0.1 M NaHCO3 buffer) with a five-fold stoichiometrical excess of activated reagent to C-peptide. The tetramethylrhodamine group has absorption/emission maxima at 555/580 nm, respectively and is incorporated in the N-terminus of the C-peptide. Labelled C-peptides were purified by gel filtration (desalting against 50 mM phosphate buffer, 0.1 M NaCl, pH 7.4) on a NAP-5 column; Pharmacia Biotech Uppsala, Sweden) and subsequently by preparative reverse phase chromatography (250 mm Kromasil C8 column, diam. 4.6 mm, 7 μm particle size, 10 nm pore size, Eka-Nobel, Surte, Sweden) using a 1090 Hewlett Packard HPLC chromatography system (Grenoble, France) (FIG. 1). Eluted material was immediately adjusted to pH 8 by addition of ammonia and subsequently lyophilized.
Cultured human renal tubule cells (proximal convoluted tubules, PCT) were incubated with the rhodamine labelled C-peptide synthesized as described above. The cells were prepared from the healthy part of a human kidney removed surgically because of hypernephroma. The outer 150 μm of the renal cortex was removed in a microtome and incubated in a collagenase solution (0.05%) at 37° C. for 15 minutes. A tissue suspension was centrifuged and rinsed twice with 0.01% soybean trypsin inhibitor-solution (Gibco Laboratories, Grand Island, N.Y., USA) and a concentrate of PCT fragments and PCT cells were plated onto glass cover slips. The cells were cultured in Dulbecco's Modified Eagle's Medium [DMEM, 20 mmol/l 4-(2-hydroxyethyl)-1-piperazineethane sulphoric acid (Hepes), 24 mmol/l NaHCO3 50,000 IU/l penicillin and 50 mg/l streptomycin, pH 7.4] with 10% fetal bovine serum (Gibco) in an incubator at 37° C. with 95% O2, and 5% CO2. After 28 hours in culture the medium was changed to DMEM with 1% fetal bovine serum. The cells were examined approximately 18-36 hours later.
The interaction between C-peptide and the cell surface of the tubule cells was recorded using fluorescence correlation spectroscopy (11). […] In contrast, when the cells were preincubated with 5 μM of Peptide E, C-peptide binding after 50 minutes was no more than 12%.

Substance | relative stimulatory activity on Na^+K^+ATPase activity [1] [%] | effect of preincubation on binding of fluorescently labelled C-peptide (in words) [2] | other results
ELGGGP [Peptide C, fragment of Peptide A] | 46±3 | – | –
D,L-LG | – | – | activity of peptides containing D-amino acid isomers (in words) [1]: active
ELGGGPGAG [Peptide A, fragment of human insulin C-peptide] | 88±3 | – | –
GSLQ [Peptide F, fragment of Peptide E] | 96±2 | prevent binding of the fluorescently marked C-peptide | stimulation of Na^+K^+ATPase activity compared with whole C-peptide (in words) [1]: comparable to or greater than that for the whole molecule
GGPGA [Peptide D, fragment of Peptide A] | 65±4 | – | –
D-LG | – | – | activity of peptides containing D-amino acid isomers (in words) [1]: active
EGSLQ [Peptide E, C-terminal fragment of human insulin C-peptide] | 110±3 | prevent binding of the fluorescently marked C-peptide | stimulation of Na^+K^+ATPase activity compared with whole C-peptide (in words) [1]: comparable to or greater than that for the whole molecule; C-peptide remaining bound after later addition of the peptide ([2]; C-peptide bound for 50 minutes, then peptide added, within 4 hours): 14%; C-peptide binding after 50 minutes ([2]; cells preincubated with 5 μM of the peptide, C-peptide 5 nM): no more than 12%
EAEDLQVGQVELGGGPGAGSLQPLALEGSLQ (N-terminal tetramethylrhodamine label) [C-peptide, human biosynthetic C-peptide (Eli-Lilly)] | – | prevents binding of the fluorescently labelled C-peptide | C-peptide bound to the cell surface ([2]; C-peptide 5 nM, within 50 minutes, no competitor): 92%
ELGG [Peptide B, fragment of Peptide A] | 36±2 | – | –
